Source: paper PMC9060465 (Proceedings of the National Academy of Sciences of the …, 2022)

Key:
[1] = target: T1, human GIPR (Homo sapiens, UniProt P48546); test: GIPR Gαs [35S]GTPγS binding, GIPR-expressing membranes; type: biochemical
T1 construct: expressed in transfected cells; host or cells: HEK293
T1 sequence (P48546 22-466): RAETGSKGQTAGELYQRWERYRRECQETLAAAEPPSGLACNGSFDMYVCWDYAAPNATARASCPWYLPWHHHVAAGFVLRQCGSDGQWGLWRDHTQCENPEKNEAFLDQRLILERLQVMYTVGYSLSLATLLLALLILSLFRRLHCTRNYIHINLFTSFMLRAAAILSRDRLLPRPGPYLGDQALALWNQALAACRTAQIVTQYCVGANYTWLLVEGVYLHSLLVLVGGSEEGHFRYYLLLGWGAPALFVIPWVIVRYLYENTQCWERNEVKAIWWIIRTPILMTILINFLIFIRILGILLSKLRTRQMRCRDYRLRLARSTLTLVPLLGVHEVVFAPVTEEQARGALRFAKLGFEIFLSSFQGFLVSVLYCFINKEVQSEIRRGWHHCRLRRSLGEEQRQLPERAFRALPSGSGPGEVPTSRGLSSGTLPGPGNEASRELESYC
Procedure: (§1) Fig. 4. […] (B) Ligand-induced GTPγS binding of Gαs was performed using the GIPR-expressing membranes. […] (C) Agonist-stimulated cAMP production was measured in human GIPR expressing HEK293 cells. […] (E) Ligand-induced GTPγS binding of Gαs was performed using the GLP-1R-expressing membranes. […] (F) Agonist-stimulated cAMP production was measured in human GLP-1R-expressing HEK293 cells. […] Data presented are representative of n ≥ 3 independent experiments. Summarized data are shown in SI Appendix, Table 2. log M; log Molar.
(§2) We note that the albumin-binding propensity of fatty acid-modified peptides can confound a pharmacological comparison of molecules, given the common use of albumin and serum as nonspecific blocking agents in biological assays. Therefore, to obviate this, entirely albumin-free assays supplemented with bovine casein or bacitracin were used to prevent nonspecific binding ([10]).
(§3) Functional potency (EC50)
(§4) and efficacy (% Top) of ligands to induce Gα s -GTPγS binding and cAMP accumulation in HEK293 cells expressing GIPR were determined. The equilibrium affinity (KD) of
(§5) ligands for the immobilized ectodomain of the GIPR were quantified by surface plasmon resonance. […]
(§6) SPR data were analyzed using T200 evaluation software (Cytiva). All data are presented as geometric means with SEM and n values
(§7) according to established practices. ND, not determined. NA, not applicable.

[2] = target: GLP-1R (Homo sapiens, UniProt P43220); test: GLP-1R Gαs [35S]GTPγS binding, GLP-1R-expressing membranes; type: biochemical; design: expressed in transfected cells; host or cells: HEK293
Sequence of GLP-1R (P43220 24-463): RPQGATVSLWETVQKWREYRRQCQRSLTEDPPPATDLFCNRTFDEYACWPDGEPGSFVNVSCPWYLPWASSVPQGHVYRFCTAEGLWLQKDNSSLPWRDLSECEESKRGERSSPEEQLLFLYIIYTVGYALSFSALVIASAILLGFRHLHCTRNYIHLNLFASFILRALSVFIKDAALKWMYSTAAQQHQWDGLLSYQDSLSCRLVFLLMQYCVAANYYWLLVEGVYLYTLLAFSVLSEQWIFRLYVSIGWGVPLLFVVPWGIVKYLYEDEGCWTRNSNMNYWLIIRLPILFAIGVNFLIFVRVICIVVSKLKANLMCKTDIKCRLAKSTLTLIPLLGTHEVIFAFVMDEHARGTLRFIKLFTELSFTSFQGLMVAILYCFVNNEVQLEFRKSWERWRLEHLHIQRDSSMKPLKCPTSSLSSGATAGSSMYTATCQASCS
Procedure: as §1
as §2, with “([10]). […]” for “([10]).”
Middle Panel: The affinity (Ki) of ligands for the GLP-1R was […]
Functional potency (EC50) and efficacy (% Top) of ligands to induce Gα s-GTPγS binding and cAMP accumulation in HEK293 cells expressing GLP-1R were determined. The equilibrium affinity (KD) of ligands for the immobilized ectodomain of the GLP-1R were quantified by surface plasmon resonance. […]
SPR data were analyzed using T200 evaluation software (Cytiva). All data are presented as geometric means with SEM and n values according to established practices. ND, not determined. NA, not applicable.

[3] = target: T1, human GIPR; test: GIPR low density cAMP accumulation in HEK293 cells; type: cell-based
Procedure: as §1, §2, §3, §4, §5, §6, §7

[4] = efficacy (% Top), normalized to GIP(1-42), (SEM)

CC[C@H](C)[C@H](NC(=O)[C@H](CC(C)C)NC(=O)[C@H](Cc1c[nH]c2ccccc12)NC(=O)[C@H](CCC(N)=O)NC(=O)[C@@H](NC(=O)[C@H](Cc1ccccc1)NC(=O)[C@H](C)NC(=O)[C@H](CCCCN)NC(=O)[C@H](CCC(N)=O)NC(=O)[C@H](C)NC(=O)[C@@H](NC(=O)[C@H](CCCCN)NC(=O)[C@H](CC(=O)O)NC(=O)[C@H](CC(C)C)NC(=O)C(C)(C)NC(=O)[C@@H](NC(=O)[C@H](CO)NC(=O)[C@H](Cc1ccc(O)cc1)NC(=O)[C@H](CC(=O)O)NC(=O)[C@H](CO)NC(=O)[C@@H](NC(=O)[C@H](Cc1ccccc1)NC(=O)[C@@H](NC(=O)CNC(=O)[C@H](CCC(=O)O)NC(=O)C(C)(C)NC(=O)[C@@H](N)Cc1ccc(O)cc1)[C@@H](C)O)[C@@H](C)O)[C@@H](C)CC)[C@@H](C)CC)C(C)C)C(=O)N[C@@H](C)C(=O)NCC(=O)NCC(=O)N1CCC[C@H]1C(=O)N[C@@H](CO)C(=O)N[C@@H](CO)C(=O)NCC(=O)N[C@@H](C)C(=O)N1CCC[C@H]1C(=O)N1CCC[C@H]1C(=O)N1CCC[C@H]1C(=O)N[C@@H](CO)C(N)=O [Tzp∆C20]
EC50 ([1]; Gαs-GTPγS binding, GIPR-expressing membranes, albumin-free, geometric mean (SEM, n), read-out: GIPR GTPγS Recruitment EC50): 0.0733 nM | GIPR GTPγS Recruitment Top [1, 4]: 91.0 (3.5) % | EC50 ([2]; Gαs-GTPγS binding, GLP-1R-expressing membranes, albumin-free, geometric mean (SEM, n), read-out: GLP-1R GTPγS Recruitment EC50): 0.626 nM | GLP-1R GTPγS Recruitment Top ([2]; efficacy (% Top), normalized to GLP-1(7-36), (SEM)): 74.8 (9.1) % | EC50 ([3]; cAMP accumulation, HEK293 cells expressing GIPR, albumin-free, geometric mean (SEM, n)): 0.0163 nM | GIPR Low Density cAMP Top [3, 4]: 107 (4) %
